Measured values as given in paper PMC9589254, “Disrupting Cu trafficking as a potential therapy for cancer” (Frontiers in Molecular Biosciences, 2022).
Peptide text beside a SMILES is read from it.

Experiments:
[1] = target: T1, ATP7B MBD3-4 (Homo sapiens, UniProt P35670); assay: Microscale thermophoresis (MST) binding to MBD3-4; settings: for Kd: in the presence of Cu(I) (40 µM), protein 50 nM
T1 construct: […]; made in house; host or cells: E. coli Origami 2
T1 sequence (P35670 234-439): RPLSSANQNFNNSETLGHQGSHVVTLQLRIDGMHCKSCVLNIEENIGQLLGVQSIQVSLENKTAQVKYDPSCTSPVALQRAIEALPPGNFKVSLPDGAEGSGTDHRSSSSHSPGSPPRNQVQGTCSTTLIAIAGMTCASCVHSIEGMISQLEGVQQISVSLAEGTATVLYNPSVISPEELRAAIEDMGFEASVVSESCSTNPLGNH
Description: To better understand the EPR and CD experiments, MST binding experiments were performed. MST is a physical phenomenon whereby biomolecules migrate along a temperature gradient according to their size, hydrodynamic radius, charge, and hydration shell. The target biomolecule is fluorescently labeled and monitored over the course of the experiment. An infra-red laser is used to create a temperature gradient for a given time. Since binding interactions can alter the properties listed above, a binding curve can be created with a ligand titration series. Fixed amounts of labelled MBD3-4 or Atox1 were incubated with increasing concentrations of SMD or KER peptides, in the presence or absence of Cu(I) (Figure 3). […] The measured KD values of the SMD peptide were in the tens of µM range for both Atox1 (39 ± 3 μM) and MBD3-4 (45 ± 4 μM), whereas KER peptide preferentially interacted with Atox1 (20 ± 2 μM). The KD for the interaction with MBD3-4 was slightly higher (36 ± 3 μM).
The labelling was performed with reactive dyes using N-hydroxysuccinimide (NHS)–ester chemistry. The protein concentration was adjusted to 20 μM using HEPES buffer. Briefly, the solid fluorescent dye was dissolved in DMSO at a concentration of about 1.3 mM and mixed thoroughly. Before mixing the protein and dye, the concentration of the dye was adjusted to twice that of the protein using HEPES buffer. Then, the protein and fluorescent dye solutions were mixed at a 1:1 ratio and incubated for 30 min at room temperature in the dark. […] Purity was monitored by measuring the ratio of protein to dye (spectroscopically, for example, by measuring absorption at 280 nm for protein and 650 nm for the dye; molar absorbance: 250,000 M^−1 cm^−1) after the clean-up procedure.
(§1) MBD3-4 and Atox1 were labeled on lysine residues with red fluorescent NT-647-NHS using the NanoTemper labeling kit. […] Normalized fluorescence was detected at a ratio of [Fnorm = Fhot/Finitial]. Fluorescence was measured before IR-laser heating (Finitial) and after a specific IR-laser heating (Fhot) time. […]

[2] = tested on: HEK293 human kidney cells; assay: Cell toxicity (MTT assay), HEK293; type: cell-based; settings: copper ions alone, absence of peptides, read-out: LC50 (the source's name)
Description: (§2) HEK293 and MCF7 cells were cultured in Dulbecco’s modified Eagle’s medium (DMEM) high glucose medium, with fetal bovine serum (10%), L-glutamine (1%), and PSNS antibiotic (1%). The HepG2 cell line was cultured in Eagle’s minimum essential medium (EMEM), with fetal bovine serum (10%), L-glutamine (1%) and PSNS antibiotic (1%). The THLE-3 cell line was cultured in BGEM medium according to manufacturer’s instructions. All cell line types were cultured at 37°C with 5% CO2. The culture media was changed every 2 days. At 80% confluence, the cells were harvested using 0.25% trypsin and sub-cultured into 75 cm^2 flasks, 24-well plates, or 96-well plates, according to the experiment. The cells were then treated with a range of peptide concentrations suspended in medium without serum for 24 h. After the 24 h treatment, the various toxicity end points were evaluated in the control and peptide-exposed cells.
(§3) Peptides were introduced at various concentrations (three triplicates per concentration) ranging from 0 to 1 mM and incubated with the different cell lines (HEK293/MCF7/HepG2/THLE-3) for 24 h at 37°C. […] Lysates were transferred to 96-well plates and absorption values were collected using a Synergy plate reader at 570 nm wavelength. […] The absorption of the control (without peptide) was determined at 100%; all peptide concentrations were compared to the control sample. […]

[3] = tested on: MCF7 breast cancer cells; assay: Cell toxicity (MTT assay), MCF7; type: cell-based; settings: copper ions alone, absence of peptides, read-out: LC50 (the source's name)
Description: as §2, §3

[4] = tested on: HepG2 liver cancer cells; assay: Cell toxicity (MTT assay), HepG2; type: cell-based; settings: copper ions alone, absence of peptides, read-out: LC50 (the source's name)
Description: as §2, §3

[5] = target: T2, Atox1 (Homo sapiens, UniProt O00244); assay: Microscale thermophoresis (MST) binding to Atox1; settings: neither in the presence nor in the absence of Cu(I)
T2 construct: made in house; host or cells: E. coli Origami 2 (as for ATP7B MBD3-4)
T2 sequence (O00244 1-68): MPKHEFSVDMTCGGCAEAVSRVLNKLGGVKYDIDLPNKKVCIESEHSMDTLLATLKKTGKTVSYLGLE
Description: To better understand the EPR and CD experiments, MST binding experiments were performed. MST is a physical phenomenon whereby biomolecules migrate along a temperature gradient according to their size, hydrodynamic radius, charge, and hydration shell. The target biomolecule is fluorescently labeled and monitored over the course of the experiment. An infra-red laser is used to create a temperature gradient for a given time. Since binding interactions can alter the properties listed above, a binding curve can be created with a ligand titration series. Fixed amounts of labelled MBD3-4 or Atox1 were incubated with increasing concentrations of SMD or KER peptides, in the presence or absence of Cu(I) (Figure 3). […]
The labelling was performed with reactive dyes using N-hydroxysuccinimide (NHS)–ester chemistry. […] Purity was monitored by measuring the ratio of protein to dye (spectroscopically, for example, by measuring absorption at 280 nm for protein and 650 nm for the dye; molar absorbance: 250,000 M^−1 cm^−1) after the clean-up procedure.
as §1

[6] = target: ATP7B MBD3-4, fluorescently labelled (NT-647-NHS)
Sequence of ATP7B MBD3-4, fluorescently labelled (NT-647-NHS) (P35670 whole entry): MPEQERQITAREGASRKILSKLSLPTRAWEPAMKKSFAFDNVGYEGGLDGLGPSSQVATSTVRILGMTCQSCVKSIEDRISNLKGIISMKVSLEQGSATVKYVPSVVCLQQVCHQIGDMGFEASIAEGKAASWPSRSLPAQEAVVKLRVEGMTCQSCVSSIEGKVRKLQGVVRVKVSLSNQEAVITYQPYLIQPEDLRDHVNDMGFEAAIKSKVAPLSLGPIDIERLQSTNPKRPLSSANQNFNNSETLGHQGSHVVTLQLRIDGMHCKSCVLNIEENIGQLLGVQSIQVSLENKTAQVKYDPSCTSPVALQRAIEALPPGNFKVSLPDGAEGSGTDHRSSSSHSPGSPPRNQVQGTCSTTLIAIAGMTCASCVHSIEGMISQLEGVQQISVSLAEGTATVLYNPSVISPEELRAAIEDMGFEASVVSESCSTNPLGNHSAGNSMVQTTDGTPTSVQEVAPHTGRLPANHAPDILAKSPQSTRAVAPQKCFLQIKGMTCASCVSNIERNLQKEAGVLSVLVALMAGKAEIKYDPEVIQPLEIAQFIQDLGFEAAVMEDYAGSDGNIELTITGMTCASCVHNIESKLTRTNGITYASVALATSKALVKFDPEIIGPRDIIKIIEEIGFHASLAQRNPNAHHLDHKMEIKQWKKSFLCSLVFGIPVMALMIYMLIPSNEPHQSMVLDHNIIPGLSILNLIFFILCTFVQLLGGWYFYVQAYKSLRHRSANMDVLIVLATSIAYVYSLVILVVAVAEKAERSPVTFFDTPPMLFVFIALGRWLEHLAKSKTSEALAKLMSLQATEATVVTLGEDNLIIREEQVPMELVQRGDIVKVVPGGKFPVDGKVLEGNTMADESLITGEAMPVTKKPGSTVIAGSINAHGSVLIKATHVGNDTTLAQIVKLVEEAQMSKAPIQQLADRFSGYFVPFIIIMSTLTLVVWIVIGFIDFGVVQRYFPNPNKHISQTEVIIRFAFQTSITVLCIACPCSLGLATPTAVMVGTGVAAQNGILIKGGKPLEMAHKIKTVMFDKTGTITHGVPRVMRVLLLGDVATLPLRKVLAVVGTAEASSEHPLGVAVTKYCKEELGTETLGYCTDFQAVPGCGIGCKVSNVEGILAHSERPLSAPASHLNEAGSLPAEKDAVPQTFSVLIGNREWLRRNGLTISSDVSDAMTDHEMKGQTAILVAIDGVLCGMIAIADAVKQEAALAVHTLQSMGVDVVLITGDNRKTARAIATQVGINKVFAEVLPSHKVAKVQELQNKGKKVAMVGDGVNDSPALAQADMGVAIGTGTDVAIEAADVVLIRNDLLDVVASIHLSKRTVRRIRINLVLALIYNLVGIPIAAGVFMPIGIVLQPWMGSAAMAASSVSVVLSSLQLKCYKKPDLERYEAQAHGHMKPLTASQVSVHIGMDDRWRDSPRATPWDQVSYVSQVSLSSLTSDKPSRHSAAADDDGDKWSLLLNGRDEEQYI

[7] = target: T3, Atox1, fluorescently labelled (NT-647-NHS) (UniProt O00244 1-68, red fluorescent NT-647-NHS on lysine residues); assay: cell-based or functional assay
T3 sequence (looked up): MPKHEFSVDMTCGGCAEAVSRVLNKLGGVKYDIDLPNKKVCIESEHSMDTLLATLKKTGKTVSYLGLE

[8] = target: ATP7B MBD3-4, fluorescently labelled (NT-647-NHS); assay: MST; with Cu(I) 40 uM; labelled protein 50 nM, peptide titrated; 25 mM Na2HPO4 pH 8, 150 mM NaCl, 0.05% Tween 20; 25 C; Monolith NT.115
[9] = target: T3, Atox1, fluorescently labelled …; assay: as above; settings: both partners purified

## CC[C@H](C)[C@H](NC(=O)[C@H](CO)NC(=O)[C@H](CCSC)NC(=O)[C@H](CC(=O)O)NC(=O)[C@H](CCSC)NC(=O)[C@@H](N)CO)C(=O)N[C@@H](CCC(=O)O)C(N)=O [SMD, SMDMSIE] (H-SMDMSIE-NH2)
[1]
  Kd: 45 ± 4 µM

## [Cu+] [Cu(I)]
[2]
  CC50: 150 µM
[3]
  CC50: 165 µM
[4]
  CC50: 170 µM

## GAGAAA [Ala]
[5]
  Binding interaction with Atox1 (MST): No binding interaction was observed
[1]; neither in the presence nor in the absence of Cu(I)
  Binding interaction with MBD3-4 (MST): No binding interaction was observed

## C[C@@H](O)[C@H](NC(=O)[C@H](CCCNC(=N)N)NC(=O)[C@H](CCC(=O)O)NC(=O)[C@@H](N)CCCCN)C(=O)N[C@@H](CO)C(=O)N[C@@H](CCCNC(=N)N)C(N)=O [KER, KERTSR] (H-KERTSR-NH2)
[1]
  Kd: 36 ± 3 µM

## [Cu+2] [Cu(II)]
[2]
  CC50: 196 µM
[3]
  CC50: 180 µM
[4]
  CC50: 205 µM

B1: KER peptide (peptide)
peptide: KERTSR
notes: Made on rink-amide resin, which would give a C-terminal amide; also called KERTSR; source: synthetic peptide (Fmoc, rink-amide resin, reverse phase HPLC; 99.4% purity)
[6]
  intracellular 64Cu content of MCF7 cells 4 h after 64Cu(II) injection, with peptide against without: 3 fold
[7]
  intracellular 64Cu content of MCF7 cells 4 h after 64Cu(II) injection, with peptide against without: 3 fold
[8]
  Kd: 36 µM
[9]
  Kd: 20 ± 2 µM

B2: SMD peptide (peptide)
peptide: SMDMSIE
notes: Made on rink-amide resin, which would give a C-terminal amide; also called SMDMSIE; source: synthetic peptide (Fmoc, rink-amide resin, reverse phase HPLC; 95.1% purity)
[6]
  intracellular 64Cu content of MCF7 cells 4 h after 64Cu(II) injection, with peptide against without: 5 fold
[7]
  intracellular 64Cu content of MCF7 cells 4 h after 64Cu(II) injection, with peptide against without: 5 fold
[8]
  Kd: 45 µM
[9]
  Kd: 39 ± 3 µM
